Assay results published in article PMC10707468, “Pharmacokinetics of Novel Dopamine Transporter Inhibitor CE-123 and Modafinil with a Focus on Central Nervous System Distribution” (International Journal of Molecular Sciences, 2023).

Legend:
[1] = In vitro plasma stability assay; format: in vitro ADME; conditions: rat plasma
Protocol: In vitro plasma stability assay was used in the scope of the validation studies. Briefly, 40 μL of blank rat plasma or blank rat plasma containing 10% DMF as an inhibitor was first pre-warmed for 5 min at 37 °C using a Thermomixer® comfort (Eppendorf, Hamburg, Germany). […] The reaction was terminated after 0, 1, 2, and 4 h, via the addition of 50 μL of ice-cold ACN containing the IS solution. The samples were centrifuged for 10 min at 3000× g at 4 °C. The supernatant of all samples was diluted with 0.1% FA in water, 1:2 (v:v), and 10 µL of the sample was injected onto the LC–HRMS system.

[2] = test system: human isoforms of the DAT; design: method as in PMID 29230168; conditions: HEK293 cells; cited from earlier work
NET = test system: NET; design: method as in PMID 29410048; conditions: cited from earlier work
CYP2D6 = biological target: T1, CYP2D6 (Homo sapiens, UniProt P10635); experiment: CYP P450 inhibition in HLMs (Eurofins Panlabs); format: in vitro ADME; conditions: microsomes, S-CE-123 10 µM, range given for CYP2C9, CYP1A and CYP2D6 together, read-out: inhibition of control values
T1 construct: from tissue; host or cells: human liver microsomes (HLMs)
Protocol: (§1) In vitro metabolism assays for the cytochrome (CYP) P450 inhibition of S-CE-123 was outsourced to Eurofins Panlabs (St. Charles, MO, USA, study number 100050638). Briefly, 0.1 mg/mL of the HLMs was incubated for 10 min at 37 °C with substrate (10 µM phenacetin for CYP1A, 100 µM bupropion for CYP2B6, 10 µM amodiaquine for CYP2C8, 10 µM diclofenac for CYP2C9, 0.5 µM omeprazole for CYP2C19, 5 µM dextromethorphan for CYP2D6, 5 µM midazolam for CYP3A, and 50 µM testosterone for CYP3A4) in the presence/absence of S-CE-123 (10 µM). The peak areas corresponding to the metabolite of each substrate were recorded. The percent of control activity was then calculated by comparing the peak area obtained in the presence of the test compound to that obtained in the absence of the test compound. Subsequently, the percent inhibition was calculated by subtracting the percent control activity from 100 for each compound. The IC50 values (concentration causing a half-maximal inhibition of control values) were determined using non-linear regression analysis of the concentration–response curve using Hill equation curve fitting.

CYP1A = biological target: T2, CYP1A (Homo sapiens, UniProt P05177); experiment: CYP P450 inhibition in HLMs (Eurofins Panlabs); format: in vitro ADME; conditions: microsomes, S-CE-123 10 µM, range given for CYP2C9, CYP1A and CYP2D6 together, read-out: inhibition of control values
T2 construct: from tissue; host or cells: human liver microsomes (HLMs)
T2 sequence (P05177 2-516 limits assumed): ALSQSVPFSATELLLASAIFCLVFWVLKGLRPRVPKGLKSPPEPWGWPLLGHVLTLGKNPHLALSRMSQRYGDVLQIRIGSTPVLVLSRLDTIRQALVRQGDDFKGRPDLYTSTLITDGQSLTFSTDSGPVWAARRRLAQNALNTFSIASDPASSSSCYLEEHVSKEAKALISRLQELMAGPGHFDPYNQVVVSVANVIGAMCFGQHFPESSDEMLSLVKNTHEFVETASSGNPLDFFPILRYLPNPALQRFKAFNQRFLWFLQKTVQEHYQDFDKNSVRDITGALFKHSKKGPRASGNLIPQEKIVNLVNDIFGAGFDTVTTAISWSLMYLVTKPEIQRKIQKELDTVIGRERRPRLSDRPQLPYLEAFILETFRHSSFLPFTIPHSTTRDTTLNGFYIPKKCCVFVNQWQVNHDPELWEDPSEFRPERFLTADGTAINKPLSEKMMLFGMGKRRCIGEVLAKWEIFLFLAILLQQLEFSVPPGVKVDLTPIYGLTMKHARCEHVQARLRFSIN
Protocol: as §1

CYP2B6 = biological target: T3, CYP2B6 (Homo sapiens, UniProt P20813); experiment: CYP P450 inhibition in HLMs (Eurofins Panlabs); format: in vitro ADME; conditions: S-CE-123 10 µM
T3 construct: from tissue; host or cells: human liver microsomes (HLMs)
T3 sequence (P20813 1-491): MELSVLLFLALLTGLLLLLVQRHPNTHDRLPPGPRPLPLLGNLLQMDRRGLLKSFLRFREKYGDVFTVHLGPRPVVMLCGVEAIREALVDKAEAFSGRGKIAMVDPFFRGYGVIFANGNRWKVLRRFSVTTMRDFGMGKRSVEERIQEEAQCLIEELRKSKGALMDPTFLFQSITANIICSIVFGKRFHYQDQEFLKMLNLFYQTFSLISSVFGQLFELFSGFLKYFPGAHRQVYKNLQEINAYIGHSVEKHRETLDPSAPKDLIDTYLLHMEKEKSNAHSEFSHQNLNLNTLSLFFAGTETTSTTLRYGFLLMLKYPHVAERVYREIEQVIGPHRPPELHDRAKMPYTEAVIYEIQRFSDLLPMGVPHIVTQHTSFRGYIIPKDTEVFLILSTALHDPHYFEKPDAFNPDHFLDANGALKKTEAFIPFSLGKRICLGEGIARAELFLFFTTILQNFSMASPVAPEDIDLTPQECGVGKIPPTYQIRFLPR
Protocol: as §1

human DAT = conditions: cell lines expressing human DAT; read-out: Inhibitory constant, Ki; cited from earlier work
CYP2C19 = CYP2C19 (Homo sapiens, UniProt P33261); experiment: CYP P450 inhibition in HLMs (Eurofins Panlabs); format: in vitro ADME; design: from tissue; host or cells: human liver microsomes (HLMs); conditions: S-CE-123 10 µM
Protocol: as §1

CYP2C9 = CYP2C9 (Homo sapiens, UniProt P11712); experiment: CYP P450 inhibition in HLMs (Eurofins Panlabs); format: in vitro ADME; design: from tissue; host or cells: human liver microsomes (HLMs); conditions: microsomes, S-CE-123 10 µM, range given for CYP2C9, CYP1A and CYP2D6 together, read-out: inhibition of control values
Protocol: as §1

T1 sequence (P10635 whole entry): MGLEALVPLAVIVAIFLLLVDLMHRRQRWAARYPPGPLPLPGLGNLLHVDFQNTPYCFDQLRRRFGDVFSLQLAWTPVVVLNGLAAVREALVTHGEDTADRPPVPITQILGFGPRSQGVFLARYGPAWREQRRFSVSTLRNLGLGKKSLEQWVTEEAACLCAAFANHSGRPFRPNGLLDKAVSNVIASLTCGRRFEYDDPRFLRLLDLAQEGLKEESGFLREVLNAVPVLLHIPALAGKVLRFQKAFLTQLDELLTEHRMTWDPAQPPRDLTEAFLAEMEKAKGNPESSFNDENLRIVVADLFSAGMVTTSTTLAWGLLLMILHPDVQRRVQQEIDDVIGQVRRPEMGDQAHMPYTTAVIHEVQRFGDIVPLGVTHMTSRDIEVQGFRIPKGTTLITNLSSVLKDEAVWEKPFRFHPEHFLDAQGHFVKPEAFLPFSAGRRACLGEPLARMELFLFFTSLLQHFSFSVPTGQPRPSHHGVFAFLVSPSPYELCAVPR
Sequence of CYP2C19 (P33261 whole entry): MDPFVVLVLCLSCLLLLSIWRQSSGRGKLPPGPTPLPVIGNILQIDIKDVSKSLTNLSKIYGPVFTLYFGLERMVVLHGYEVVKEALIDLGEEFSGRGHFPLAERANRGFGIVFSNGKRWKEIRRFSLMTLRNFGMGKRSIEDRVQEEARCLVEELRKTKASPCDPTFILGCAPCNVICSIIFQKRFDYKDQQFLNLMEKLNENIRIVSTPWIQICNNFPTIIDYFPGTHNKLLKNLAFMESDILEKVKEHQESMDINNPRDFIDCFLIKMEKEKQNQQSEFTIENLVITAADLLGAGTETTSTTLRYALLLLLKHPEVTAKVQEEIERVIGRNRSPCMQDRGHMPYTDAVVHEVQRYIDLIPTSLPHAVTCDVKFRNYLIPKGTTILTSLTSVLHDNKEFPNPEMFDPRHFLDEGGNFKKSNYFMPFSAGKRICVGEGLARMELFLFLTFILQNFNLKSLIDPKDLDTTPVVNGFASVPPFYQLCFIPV
Sequence of CYP2C9 (P11712 whole entry): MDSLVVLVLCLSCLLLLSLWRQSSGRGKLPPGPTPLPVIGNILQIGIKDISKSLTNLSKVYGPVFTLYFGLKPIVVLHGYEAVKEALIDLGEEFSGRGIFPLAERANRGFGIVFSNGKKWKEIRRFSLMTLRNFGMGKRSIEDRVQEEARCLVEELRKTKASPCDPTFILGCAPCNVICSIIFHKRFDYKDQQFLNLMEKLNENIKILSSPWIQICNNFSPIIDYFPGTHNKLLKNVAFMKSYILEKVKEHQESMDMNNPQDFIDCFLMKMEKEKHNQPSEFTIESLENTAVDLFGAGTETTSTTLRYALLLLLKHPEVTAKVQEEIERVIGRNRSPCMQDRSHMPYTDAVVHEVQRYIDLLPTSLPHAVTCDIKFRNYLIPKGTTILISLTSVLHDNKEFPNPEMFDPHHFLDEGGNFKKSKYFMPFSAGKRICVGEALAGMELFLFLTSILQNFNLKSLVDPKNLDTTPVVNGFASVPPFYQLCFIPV

SMILES | R-modafinil level remaining ([1]; 4 h incubation at 37 °C) | metabolized ([1]; after 4 h at 37 °C) [%] | fold higher in vitro activity on the DAT than its R-enantiomer [2] [fold] | activity on NET (NET) | inhibition at 10 min, 10 µM (CYP2D6) [%] | inhibition at 10 min, 10 µM (CYP1A) [%] | inhibition of control values (CYP2B6) | Ki (human DAT) [nM] | inhibition of control values (CYP2C19) | inhibition at 10 min, 10 µM (CYP2C9) [%]
NC(=O)C[S@@+]([O-])C(c1ccccc1)c1ccccc1 [R-modafinil, reference compound] | about 50% | 50 | – | – | – | – | – | – | – | –
[O-][S@@+](Cc1cncs1)C(c1ccccc1)c1ccccc1 [S-CE-123] | – | – | ~8 | negligible activity | 47 to 68 | 47 to 68 | Low inhibition | 610 | Low inhibition | 47 to 68
